Each structure is given as a SMILES string.

In this assay the target is T1, VEGFR2 (KDR) (Homo sapiens, UniProt P35968).
T1 construct: made in house; host or cells: Sf9 cells (Spodoptera frugiperda), baculovirus (Bac-to-Bac)
T1 sequence (P35968 806-1356): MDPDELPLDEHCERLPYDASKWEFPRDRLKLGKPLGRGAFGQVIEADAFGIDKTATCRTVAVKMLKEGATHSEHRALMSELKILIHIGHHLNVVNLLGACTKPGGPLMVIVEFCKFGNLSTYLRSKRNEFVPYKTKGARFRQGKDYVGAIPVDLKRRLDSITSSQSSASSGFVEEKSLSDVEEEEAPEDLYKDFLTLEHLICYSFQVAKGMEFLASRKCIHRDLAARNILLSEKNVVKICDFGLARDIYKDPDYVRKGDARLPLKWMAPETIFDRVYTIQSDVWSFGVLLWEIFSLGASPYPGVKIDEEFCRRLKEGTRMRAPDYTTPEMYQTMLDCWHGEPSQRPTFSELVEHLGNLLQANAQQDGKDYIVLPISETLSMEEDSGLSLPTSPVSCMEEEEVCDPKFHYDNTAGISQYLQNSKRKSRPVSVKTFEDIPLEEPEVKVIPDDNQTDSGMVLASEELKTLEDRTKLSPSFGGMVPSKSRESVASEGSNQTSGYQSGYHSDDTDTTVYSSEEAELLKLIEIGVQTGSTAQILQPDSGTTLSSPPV
Description: In Vitro Receptor Tyrosine Kinase Assay (VEGF Receptor KDR). It is filed as biochemical. The conditions noted are these: recombinant GST-VEGFR2 806-1356, DELFIA assay, ATP 0.6 uM, enzyme 5 nM; read-out: VEGFR_IC50_UM. The source says:
In Vitro Receptor Tyrosine Kinase Assay (VEGF Receptor KDR)
This test measures the ability of compounds to inhibit the enzymatic activity of recombinant human VEGF receptor enzymatic activity.
A 1.6-kb cDNA corresponding to the catalytic domain of VEGFR2 (KDR) (Genbank accession number AF035121 amino acid 806 to 1356) is cloned into the Pst I site of the pDEST20 Gateway vector (Invitrogen) for the production of a GST-tagged version of that enzyme. This construct is used to generate recombinant baculovirus using the Bac-to-Bac™ system according to the manufacturer's instructions (Invitrogen).
The GST-VEGFR2806-1356 protein is expressed in Sf9 cells (Spodoptera frugiperda) upon infection with recombinant baculovirus construct. Briefly, Sf9 cells grown in suspension and maintained in serum-free medium (Sf900 II supplemented with gentamycin) at a cell density of about 2×10^6 cells/ml are infected with the above-mentioned viruses at a multiplicity of infection (MOI) of 0.1 during 72 hours at 27° C. with agitation at 120 rpm on a rotary shaker. Infected cells are harvested by centrifugation at 398 g for 15 min. Cell pellets are frozen at […] until purification is performed.
All steps described in cell extraction and purification are performed at 4° C. Frozen Sf9 cell pellets infected with the GST-VEGFR2806-1356 recombinant baculovirus are thawed and gently resuspended in Buffer A (PBS pH 7.3 supplemented with 1 μg/ml pepstatin, 2 μg/ml Aprotinin and leupeptin, 50 μg/ml PMSF, 50 μg/ml TLCK and 10 μM E64 and 0.5 mM DTT) using 3 ml of buffer per gram of cells. Suspension is Dounce homogenized and 1% Triton X-100 is added to the homogenate after which it is centrifuged at 22500 g, 30 min., 4° C. The supernatant (cell extract) is used as starting material for purification of GST-VEGFR2806-1356.
The supernatant is loaded onto a GST-agarose column (Sigma) equilibrated with PBS pH 7.3. Following a four column volume (CV) wash with PBS pH 7.3+1% Triton X-100 and 4 CV wash with buffer B (50 mM Tris pH 8.0, 20% glycerol and 100 mM NaCl), bound proteins are step eluted with 5 CV of buffer B supplemented with 5 mM DTT and 15 mM glutathion. GST-VEGFR2806-1356 enriched fractions from this chromatography step are pooled based on U.V. trace i.e. fractions with high O.D.280. Final GST-VEGFR2806-1356 protein preparations concentrations are about 0.7 mg/ml with purity approximating 70%. Purified GST-VEGFR2806-1356 protein stocks are aliquoted and frozen at −80° C. prior to use in enzymatic assay.
Inhibition of VEGFR/KDR is measured in a DELFIA™ assay (Perkin Elmer). The substrate poly(Glu4,Tyr) is immobilized onto black high-binding polystyrene 96-well plates. The coated plates are washed and stored at 4° C. During the assay, the enzyme is pre-incubated with inhibitor and Mg-ATP on ice in polypropylene 96-well plates for 4 minutes, and then transferred to the coated plates. The subsequent kinase reaction takes place at 30° C. for 10-minutes. ATP concentrations in the assay are 0.6 uM for VEGFR/KDR (2× the Km). Enzyme concentration is 5 nM. After incubation, the kinase reactions are quenched with EDTA and the plates are washed. Phosphorylated product is detected by incubation with Europium-labeled anti-phosphotyrosine MoAb. After washing the plates, bound MoAb is detected by time-resolved fluorescence in a Gemini SpectraMax reader (Molecular Devices). Compounds are evaluated over a range of concentrations, and IC50 values (concentration of compounds giving 50% inhibition of enzymatic activity) are determined.
Regarding `O=C(CO)N1CCN(Cc2ccc(-c3cc4nccc(Oc5ccc(Nc6nc7cc(Cl)ccc7[nH]6)cc5F)c4s3)nc2)CC1` [Compound 61, 1-(4-((6-(7-(4-(5-Chloro-1H-benzo[d]imidazol-2-ylamino)-2-fluorophenoxy)thieno[3,2-b]pyridin-2-yl)pyridin-3-yl)methyl)piperazin-1-yl)-2-hydroxyethanone], the IC50 was found to be 56 nM. Consider `CN1CCN(Cc2ccc(-c3cc4nccc(Oc5ccc(Nc6nc7cc(Cl)ccc7[nH]6)cc5F)c4s3)nc2)CC1` [Compound 62, 5-Chloro-N-(3-fluoro-4-(2-(5-((4-methylpiperazin-1-yl)methyl)pyridin-2-yl)thieno[3,2-b]pyridin-7-yloxy)phenyl)-1H-benzo[d]imidazol-2-amine], for which the IC50 came to 44 nM. In the case of `COCCNCc1ccc(-c2cc3nccc(Oc4ccc(Nc5nc6cc(Cl)ccc6[nH]5)cc4F)c3s2)nc1` [Compound 63, 5-Chloro-N-(3-fluoro-4-(2-(5-((2-methoxyethylamino)methyl)pyridin-2-yl)thieno[3,2-b]pyridin-7-yloxy)phenyl)-1H-benzo[d]imidazol-2-amine], the IC50 is 268 nM. As to `COCCN(Cc1ccc(-c2cc3nccc(Oc4ccc(Nc5nc6cc(Cl)ccc6[nH]5)cc4F)c3s2)nc1)C(=O)CO` [Compound 65, N-((6-(7-(4-(5-Chloro-1H-benzo[d]imidazol-2-ylamino)-2-fluorophenoxy)thieno[3,2-b]pyridin-2-yl)pyridin-3-yl)methyl)-2-hydroxy-N-(2-methoxyethyl)acetamide], the IC50 came out at 23 nM. Regarding `COCCN(Cc1ccc(-c2cc3nccc(Oc4ccc(NC(=O)NC5CN(C(=O)OC(C)(C)C)C5)cc4F)c3s2)nc1)C(=O)OC(C)(C)C` [Compound 67, tert-Butyl 3-(3-(4-(2-(5-((tert-butoxycarbonyl(2-methoxyethyl)amino)methyl)pyridin-2-yl)thieno[3,2-b]pyridin-7-yloxy)-3-fluorophenyl)ureido)azetidine-1-carboxylate], the IC50 came to 57 nM. With `CCNC(=O)N(CCOC)Cc1ccc(-c2cc3nccc(Oc4ccc(NC(=O)NC5CN(C(=O)NCC)C5)cc4F)c3s2)nc1` [Compound 69, N-Ethyl-3-(3-(4-(2-(5-((3-ethyl-1-(2-methoxyethyl)ureido)methyl)pyridin-2-yl)thieno[3,2-b]pyridin-7-yloxy)-3-fluorophenyl)ureido)azetidine-1-carboxamide] the figure was 584 nM; with `COCCN(Cc1ccc(-c2cc3nccc(Oc4ccc(NC(=O)NC5CN(C(C)=O)C5)cc4F)c3s2)nc1)C(C)=O` [Compound 70, N-((6-(7-(4-(3-(1-Acetylazetidin-3-yl)ureido)-2-fluorophenoxy)thieno[3,2-b]pyridin-2-yl)pyridin-3-yl)methyl)-N-(2-methoxyethyl)acetamide], 75 nM; with `CCOC(=O)C1CCCN(Cc2ccc(-c3cc4nccc(Oc5ccc(NC(=O)NC6COC6)cc5F)c4s3)nc2)C1` (centres unmarked) [Compound 73, Ethyl 1-((6-(7-(2-fluoro-4-(3-oxetan-3-ylureido)phenoxy)thieno[3,2-b]pyridin-2-yl)pyridin-3-yl)methyl)piperidine-3-carboxylate], 523 nM. On to `O=C(Nc1ccc(Oc2ccnc3cc(-c4ccc(CN5CCN(C(=O)CO)CC5)cn4)sc23)c(F)c1)NC1COC1` [Compound 88, 1-(3-Fluoro-4-(2-(5-((4-(2-hydroxyacetyl)piperazin-1-yl)methyl)pyridin-2-yl)thieno[3,2-b]pyridin-7-yloxy)phenyl)-3-(oxetan-3-yl)urea], for which the IC50 was determined as 42 nM. For the molecule `O=C(Nc1ccc(Oc2ccnc3cc(-c4ccc(CN5CCCC5=O)cn4)sc23)c(F)c1)NC1COC1` [Compound 93, 1-(3-Fluoro-4-(2-(5-((2-oxopyrrolidin-1-yl)methyl)pyridin-2-yl)thieno[3,2-b]pyridin-7-yloxy)phenyl)-3-(oxetan-3-yl)urea], the IC50 was determined as 9 nM. The figure for `COCCN(Cc1ccc(-c2cc3nccc(Oc4ccc(NC(=O)NC5COC5)cc4F)c3s2)nc1)C(=O)OC(C)(C)C` [Compound 104] is 197 nM; for `O=C(Nc1ccc(Oc2ccnc3cc(-c4ccc(CN5CCOC5=O)cn4)sc23)c(F)c1)NC1COC1` [Compound 105] it is 25 nM; for `COCCN(Cc1ccc(-c2cc3nccc(Oc4ccc(NC(=O)NC5COC5)cc4F)c3s2)nc1)C(C)=O` [Compound 106] it is 12 nM.

For the molecule `CN(C)[C@H]1CCN(C(=O)c2cc3nccc(Oc4ccc(NC(=O)NC5COC5)cc4F)c3s2)C1` [Compound 107], the IC50 is 56 nM. For the molecule `COCCN(Cc1ccc(-c2cc3nccc(Oc4ccc(NC(=O)NC5COC5)c(F)c4F)c3s2)nc1)C(=O)OC(C)(C)C` [Compound 108], the IC50 is 31 nM. With `COCCN(Cc1ccc(-c2cc3nccc(Oc4ccc(NC(=O)NC5COC5)c(F)c4F)c3s2)nc1)C(C)=O` [Compound 109], the IC50 came out at 11 nM.

For the molecule `CC(C)(C)OC(=O)N1CC(NC(=O)Nc2ccc(Oc3ccnc4cc(-c5ccc(CN6CCCC6=O)cn5)sc34)c(F)c2)C1` [Compound 110], the IC50 amounted to 17 nM. For the molecule `CC(C)(C)OC(=O)N1CC(NC(=O)Nc2ccc(Oc3ccnc4cc(-c5ccc(CN6CCOC6=O)cn5)sc34)c(F)c2)C1` [Compound 111], the IC50 amounted to 59 nM.

Consider `CC(=O)N1CC(NC(=O)Nc2ccc(Oc3ccnc4cc(-c5ccc(CN6CCCC6=O)cn5)sc34)c(F)c2)C1` [Compound 112, 1-(1-Acetylazetidin-3-yl)-3-(3-fluoro-4-(2-(5-((2-oxopyrrolidin-1-yl)methyl)pyridin-2-yl)thieno[3,2-b]pyridin-7-yloxy)phenyl)urea], for which the IC50 was found to be 37 nM.

Take `CC(=O)N1CC(NC(=O)Nc2ccc(Oc3ccnc4cc(-c5ccc(CN6CCOC6=O)cn5)sc34)c(F)c2)C1` [Compound 113, 1-(1-Acetylazetidin-3-yl)-3-(3-fluoro-4-(2-(5-((2-oxooxazolidin-3-yl)methyl)pyridin-2-yl)thieno[3,2-b]pyridin-7-yloxy)phenyl)urea]: the IC50 was determined as 95 nM.

For the origin of these results see US20130090327A1, “Inhibitors of Protein Tyrosine Kinase Activity” (METHYLGENE INC., priority 2011, published 2013).
